# Key:
# [1] = test system: KRAS G12C in NCI-H358 cells; test: pERK inhibition assay, NCI-H358; format: cell-based, human; settings: Homo sapiens, 4 hours incubation
# Experimental: (§1) This assay is to measure the ability of test compounds in inhibiting the phosphorylation of ERK, the downstream signaling of KRAS G12C in NCI-H358 cells, KRAS G12D in AGS cells, and KRAS G12V in SW620. NCI-H358 (ATCC-CRL5807) cells, AGS (ATCC-CRL-1739) cells, SW620 (ATCC-CCL-227) cells were all grown and maintained using RPMI-1640 medium (Thermo Fisher Scientific) with 10% fetal bovine serum and 1% penicillin/streptomycin. On the day prior to compound addition, cells were plated in tissue culture-treated 96 well plates (Corning-3699) at a density of 30,000 cell/well, 20,000 cell/well, 30,000 cell/well for NCI-H358, AGS and SW620 respectively, and allowed for attachment overnight. Diluted compounds were then added in a final concentration of 0.5% DMSO. After 4 hours of incubation, the medium was removed, 100 μL of 4% formaldehyde was added, and the assay plates were incubated at room temperature for 20 minutes. The plates were then washed once with phosphate buffered saline (PBS), and permeabilized with 100 μL of chilled methanol for 10 minutes. Non-specific antibody binding to the plates was blocked using 50 μL 1×BSA blocking buffer (Thermo-37520, 10-fold dilution by Phosphate-Buffered Saline Tween (PBST) for at least 1 hour at room temperature. The amount of phosphor-ERK was determined using an antibody specific for phosphorylated form of ERK. Primary antibody (pERK, CST-4370, Cell Signaling Technology) was diluted 1:300 in blocking buffer, with 50 μL aliquoted to each well, and incubated overnight at 4° C. Cells were washed five times for 5 minutes with PBST. Secondary antibody (HRP-linked anti-rabbit IgG, CST-7074, Cell Signaling Technology) was diluted 1:1000 in blocking buffer, and 50 μL was added to each well and incubated 1-2 hours at room temperature. Cells were washed 5 times for 5 minutes with PBST, 100 μL TMB ELISA substrate (abcam-ab171523) were added and gently shake for 20 minutes. 50 μL stop solution (abcam-ab171529) were added, and then read the signal (OD450) by EnVision. IC50 was determined by fitting a 4-parameter sigmoidal concentration response model.
# KRAS G12D in AGS cells = test: pERK inhibition assay, AGS; format: cell-based, human; settings: Homo sapiens, 4 hours incubation
# Experimental: as §1
# KRAS G12V in SW620 = test: pERK inhibition assay, SW620; format: cell-based, human; settings: Homo sapiens, SW-620, SW620 cells, 4 hours incubation
# Experimental: as §1
# NCI-H358 cells = test: Cell viability assay, NCI-H358; format: cell-based, human; settings: Homo sapiens, NCI-H358, 72 hours, Cell Counting Kit-8, read-out: G12C IC50
# Experimental: (§2) The purpose of this cellular assay was to determine the effects of test compounds on the proliferation of human cancer cell lines NCI-H358 (ATCC-CRL5807) cells, AGS (ATCC-CRL-1739) cells, SW620 (ATCC-CCL-227) over a 3-day treatment period by quantifying the amount of NADPH present at endpoint using Cell Counting Kit-8. Cells were seeded at 5,000 cells/well (NCI-H358), 2,000 cells/well (AGS) 2,000 cells/well (SW620) in 96-well assay plates (Corning-3699) and incubated overnight. On the day of the assay, diluted compounds were then added in a final concentration of 0.5% DMSO. After 72 hours incubation, a tenth of the volume of cell counting kit 8(Dnjindo-CK04) was added into each well. Read the signal (OD450 minus OD650) using EnVision after 2 hours incubation. IC50 was determined by fitting a 4-parameter sigmoidal concentration response model.
# AGS cells = test: Cell viability assay, AGS; format: cell-based, human; settings: Homo sapiens, 72 hours, Cell Counting Kit-8, read-out: G12D IC50
# Experimental: as §2
# SW620 cells = test: Cell viability assay, SW620; format: cell-based, human; settings: Homo sapiens, SW-620, SW620, 72 hours, Cell Counting Kit-8, read-out: G12V IC50
# Experimental: as §2
# [2] = GSH reaction rates (inherent GSH reactivity); format: in vitro ADME; settings: 1 μM compound, 5 mM GSH, 37° C.
# Experimental: Therefore Strategy to minimize the GSH metabolism is very critical. Short T1/2 in inherent GSH reaction indicated high GSH reaction rate. Thus T1/2 in inherent GSH reaction assay was determined for the screening of candidates. Reference compounds and compounds of this invention potentially could form conjugation with GSH either through halogenated moieties substitution reaction or direct Michael addition reaction. This test was therefore performed to check GSH reactivity of listed compounds. For inherent GSH reactivity determination, compounds at 1 μM were incubated at 37° C. with and without 5 mM GSH for 0, 0.5, 1, 2, 4 and 6 h in 100 mM potassium phosphate buffer at pH 7.4. At the end of the designated time points, samples were quenched with acetonitrile containing 10 mM N-ethylmaleimide and an internal standard. Quenched samples were centrifuged, and supernatants were analyzed by LC-MS/MS for compound quantification.
# [3] = Human hepatocytes stability assay; format: in vitro ADME
# Experimental: The hepatocyte stability assay measures the rate of disappearance of a compound from incubations with cryopreserved suspension hepatocytes from human. Positive controls, including Midazolam, Raloxifene and Dextromethorphan, are included in every experiment. Incubations consist of 1 μM tested compound and suspension of human hepatocytes (1×10^6 cells/mL) in supplemented Williams' E Medium with […] and 0.5% Penicillin-streptomycin. The hepatocyte suspension was incubated with intermittent shaking 900 rpm at 37° C., in a 5% CO2 incubator. The reaction was stopped by adding methanol containing internal standard (2 μM Tolbutamide) at 2, 10, 20, 40, 60 and 120 minutes after compound addition, depletion of the parent compound was monitored by LC-MS/MS analysis.
IC50 [1],IC50 (KRAS G12D in AGS cells),IC50 (KRAS G12V in SW620),IC50 (NCI-H358 cells),IC50 (AGS cells),IC50 (SW620 cells),Structure (SMILES),"Remaining at 6 hr in GSH (%) ([2]; pH 7.4, 6 hr)",T1/2(hour) in GSH ([2]; potassium phosphate buffer pH 7.4),"CL_hep (Human) ([3]; 1 μM compound, human hepatocytes 1×10^6 cells/mL)",Clearance Category ([3]; human hepatocytes)
43 nM,528 nM,78 nM,77 nM,1170 nM,294 nM,"C#CC1(F)CCN(C(=O)N(C)[C@H](C(=O)N[C@H]2Cc3cc(O)cc(c3)-c3ccc4c(c3)c(c(-c3cccnc3[C@H](C)OC)n4CC)CC(C)(C)COC(=O)[C@@H]3CCCN(N3)C2=O)C(C)C)CC1 (atropisomer, axis not shown; (M)) [Example 16, N-[(1S)-1-[[(8S,14S)-22-ethyl-4-hydroxy-(21M)-21-[2-[(1S)-1-methoxyethyl]-3-pyridyl]-18,18-dimethyl-9,15-dioxo-16-oxa-10,22,28-triazapentacyclo[18.5.2.12,6.110,14.023,27]nonacosa-1(26),2,4,6(29),20,23(27),24-heptaen-8-yl]carbamoyl]-2-methyl-propyl]-4-ethynyl-4-fluoro-N-methyl-piperidine-1-carboxamide]",,,,
55 nM,199 nM,102 nM,16.3 nM,868 nM,255 nM,"CO[C@@H](C)c1ncccc1-c1c2c3cc(ccc3n1CC(F)(F)F)-c1csc(n1)C[C@H](NC(=O)[C@H](C(C)C)N(C)C(=O)[C@H]1CCN(C(=O)[C@H](F)Cl)C1)C(=O)N1CCC[C@H](N1)C(=O)OCC(C)(C)C2 (atropisomer, axis not shown; (M)) [Example 22, (3S)-1-[(2R)-2-chloro-2-fluoro-acetyl]-N-[(1S)-1-[[(7S,13S)-(20M)-20-[2-[(1S)-1-methoxyethyl]-3-pyridyl]-17,17-dimethyl-8,14-dioxo-21-(2,2,2-trifluoroethyl)-15-oxa-4-thia-9,21,27,28-tetrazapentacyclo[17.5.2.12,5.19,13.022,26]octacosa-1(25),2,5(28),19,22(26),23-hexaen-7-yl]carbamoyl]-2-methyl-propyl]-N-methyl-pyrrolidine-3-carboxamide]",,,,
8 nM,> 10000 nM,> 1000 nM,4 nM,> 10000 nM,> 1000 nM,"CCn1c(-c2cccnc2[C@H](C)OC)c2c3cc(ccc31)-c1cc(O)cc(c1)C[C@H](NC(=O)[C@H](C(C)C)N(C)C(=O)C1CCN(C(=O)C#CCN3CCOCC3)C1)C(=O)N1CCC[C@H](N1)C(=O)OCC(C)(C)C2 (stereo partly shown) [RM018, reference compound]",,,,

# The next lines start with the molecule.
Structure (SMILES),IC50 [1],IC50 (KRAS G12D in AGS cells),IC50 (KRAS G12V in SW620),IC50 (NCI-H358 cells),IC50 (AGS cells),IC50 (SW620 cells),"Remaining at 6 hr in GSH (%) ([2]; pH 7.4, 6 hr)",T1/2(hour) in GSH ([2]; potassium phosphate buffer pH 7.4),"CL_hep (Human) ([3]; 1 μM compound, human hepatocytes 1×10^6 cells/mL)",Clearance Category ([3]; human hepatocytes)
"CCn1c(-c2cccnc2[C@H](C)OC)c2c3cc(ccc31)-c1cc(O)cc(c1)C[C@H](NC(=O)[C@H](C(C)C)N(C)C(=O)[C@H]1CCN(C(=O)C(C)=O)C1)C(=O)N1CCC[C@H](N1)C(=O)OCC(C)(C)C2 (atropisomer, axis not shown; (M)) [Example 5, (3S)-N-[(1S)-1-[[(8S,14S)-22-ethyl-4-hydroxy-(21M)-21-[2-[(1S)-1-methoxyethyl]-3-pyridyl]-18,18-dimethyl-9,15-dioxo-16-oxa-10,22,28-triazapentacyclo[18.5.2.12,6.110,14.023,27]nonacosa-1(26),2,4,6(29),20,23(27),24-heptaen-8-yl]carbamoyl]-2-methyl-propyl]-N-methyl-1-(2-oxopropanoyl)pyrrolidine-3-carboxamide]",8 nM,105 nM,26 nM,77 nM,226 nM,57 nM,,,,
"C#CC1CN(C(=O)N(C)[C@H](C(=O)N[C@H]2Cc3cc(O)cc(c3)-c3ccc4c(c3)c(c(-c3cccnc3[C@H](C)OC)n4CC)CC(C)(C)COC(=O)[C@@H]3CCCN(N3)C2=O)C(C)C)C1 (atropisomer, axis not shown; (M)) [Example 14, N-[(1S)-1-[[(8S,14S)-22-ethyl-4-hydroxy-(21M)-21-[2-[(1S)-1-methoxyethyl]-3-pyridyl]-18,18-dimethyl-9,15-dioxo-16-oxa-10,22,28-triazapentacyclo[18.5.2.12,6.110,14.023,27]nonacosa-1(26),2,4,6(29),20,23(27),24-heptaen-8-yl]carbamoyl]-2-methyl-propyl]-3-ethynyl-N-methyl-azetidine-1-carboxamide]",63 nM,529 nM,106 nM,142 nM,1380 nM,367 nM,,,,
"C#CC1CCN(C(=O)N(C)[C@H](C(=O)N[C@H]2Cc3cc(O)cc(c3)-c3ccc4c(c3)c(c(-c3cccnc3[C@H](C)OC)n4CC)CC(C)(C)COC(=O)[C@@H]3CCCN(N3)C2=O)C(C)C)CC1 (atropisomer, axis not shown; (M)) [Example 15, N-[(1S)-1-[[(8S,14S)-22-ethyl-4-hydroxy-(21M)-21-[2-[(1S)-1-methoxyethyl]-3-pyridyl]-18,18-dimethyl-9,15-dioxo-16-oxa-10,22,28-triazapentacyclo[18.5.2.12,6.110,14.023,27]nonacosa-1(26),2,4,6(29),20,23(27),24-heptaen-8-yl]carbamoyl]-2-methyl-propyl]-4-ethynyl-N-methyl-piperidine-1-carboxamide]",32 nM,291 nM,67 nM,89 nM,1240 nM,281 nM,,,,
"CO[C@@H](C)c1ncc(N2CCN(C)CC2)cc1-c1c2c3cc(ccc3n1CC(F)(F)F)-c1csc(n1)C[C@H](NC(=O)[C@H](C(C)C)N1CC[C@]3(CCN(C(=O)[C@H](F)Cl)C3)C1=O)C(=O)N1CCC[C@H](N1)C(=O)OCC(C)(C)C2 [Example 23, (2S)-2-[(5S)-7-[(2R)-2-chloro-2-fluoro-acetyl]-1-oxo-2,7-diazaspiro[4.4]nonan-2-yl]-N-[(7S,13S)-(20M)-20-[2-[(1S)-1-methoxyethyl]-5-(4-methylpiperazin-1-yl)-3-pyridyl]-17,17-dimethyl-8,14-dioxo-21-(2,2,2-trifluoroethyl)-15-oxa-4-thia-9,21,27,28-tetrazapentacyclo[17.5.2.12,5.19,13.022,26]octacosa-1(25),2,5(28),19,22(26),23-hexaen-7-yl]-3-methyl-butanamide]",2 nM,18 nM,8 nM,< 0.6 nM,3410 nM,15 nM,95%,"stable (If % depletion after 6 hour incubation is less than 20%, compounds were reported as stable)",7.9 mL/min/kg,medium (16.24<CL_hep (mL/min/kg)>6.96 is medium clearance)

# — patent publication US20250163072A1, “MACROCYCLIC COMPOUNDS FOR THE TREATMENT OF CANCER” (Hoffmann-La Roche Inc., priority 2021, published 2025)
